Target: T1, TPO receptor (Homo sapiens, UniProt P40238)
T1 construct: expressed in transfected cells; host or cells: murine BaF3 cells (TPO-responsive line)
T1 sequence (P40238 26-635): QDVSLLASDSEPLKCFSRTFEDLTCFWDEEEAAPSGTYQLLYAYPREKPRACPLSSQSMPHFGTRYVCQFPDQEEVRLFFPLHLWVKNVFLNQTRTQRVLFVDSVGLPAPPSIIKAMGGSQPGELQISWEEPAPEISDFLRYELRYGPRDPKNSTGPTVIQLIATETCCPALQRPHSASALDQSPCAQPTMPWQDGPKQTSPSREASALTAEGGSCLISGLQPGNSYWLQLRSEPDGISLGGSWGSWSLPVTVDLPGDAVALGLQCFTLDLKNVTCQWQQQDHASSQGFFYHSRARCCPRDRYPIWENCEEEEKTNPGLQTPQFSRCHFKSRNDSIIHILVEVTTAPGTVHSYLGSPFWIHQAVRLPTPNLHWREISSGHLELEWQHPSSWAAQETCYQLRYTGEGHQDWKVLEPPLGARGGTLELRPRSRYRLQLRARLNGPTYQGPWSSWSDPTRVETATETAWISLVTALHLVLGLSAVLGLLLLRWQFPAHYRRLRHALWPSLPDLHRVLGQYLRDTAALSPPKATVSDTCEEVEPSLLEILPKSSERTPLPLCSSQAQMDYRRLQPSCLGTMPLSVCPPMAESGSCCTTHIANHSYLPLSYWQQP
Experiment: Luciferase assay in TPO-responsive BaF3 cell line
Format: cell-based, murine
Conditions: at a concentration of 10 uM
Experimental: Compounds of the present invention were tested for potency as mimetics of the TPO receptor in a Luciferase assay such as described in Lamb, et al., Nucleic Acids Research 23: 3283-3289 (1995) and Seidel, et al., Proc. Natl. Acad. Sci., USA 92: 3041-3045 (1995) by substituting a TPO-responsive BaF3 cell line (Vigon et al. Proc. Natl. Acad. Sci. USA 1992, 89, 5640-5644) for the HepG2 cells utilized therein. The murine BaF3 cells express TPO receptors and closely match the pattern of STAT (signal transducers and activators of transcription) activation observed in primary murine and human bone marrow cells in response to TPO.

activation, % of control (control is the maximal response to TPO): about 9 % of control
SMILES: O=C1CSC(=S)N1N=Cc1cc(Br)cc(Br)c1O [Compound A, 3-[(2-hydroxy-3,5-dibromophen-1-yl)methyleneamino]-2-thioxothiazolidin-4-one]

Source: patent US6720345B1, “Semicarbazone derivatives and their use as thrombopoietin mimetics” (SmithKline Beecham Corporation, priority 1999, dated 2004)
